The record followed here is ChEMBL document CHEMBL1124680, “Cyclic enkephalin analogues containing alpha-amino-beta-mercapto-beta,beta-pentamethylenepropionic acid at positions 2 or 5” (J Med Chem, 1989).

The structures appear in SMILES notation. Where only a bound is given, the exact number is not on record here.

The species named for one assay is Cavia porcellus. Nature of the assay: The compound was tested In vitro for the ability to inhibit electrically induced contractions of the guinea pig ileum. The class given is functional.
Assay [1] has as its target Kappa-type opioid receptor (Rattus norvegicus, UniProt P34975). The assay can be described thus: The compound was tested for the ability to displace opioid receptor kappa specific radioligand [3H]DADLE.
The species named for another assay is Mus musculus. The assay can be described thus: The compound was tested In vitro for the ability to inhibit electrically induced contractions of the mouse vas deferens. The assay is classed as functional.
The target of assay [2] is T1, Delta-type opioid receptor (Rattus norvegicus, UniProt P33533). The assay can be described thus: The compound was tested for the ability to displace receptor specific radioligand [3H]DPDPE.
In assay [3] the target is T2, Mu-type opioid receptor (Rattus norvegicus, UniProt P33535). Nature of the assay: The compound was tested for the ability to displace mu-receptor specific radioligand [3H]DAGO.
Assay [4] addresses T1, Delta-type opioid receptor. Nature of the assay: The compound was tested for the ability to displace opioid receptor delta specific radioligand [3H]-DSLET.
A short description of assay [5]: (§1) Ratio of inhibition of electrically induced contractions in GPI and MVD. The class given is functional.
Assay [6] concerns the target T2, Mu-type opioid receptor. Nature of the assay: The compound was tested for the ability to displace Opioid receptor mu 1 specific radioligand [3H]DAGO.
Assay [7] deals with T1, Delta-type opioid receptor. Nature of the assay: The compound was tested for the ability to displace delta-receptor specific radioligand [3H]DSLET.
Assay [8] concerns the target T1, Delta-type opioid receptor. The assay can be described thus: The compound was tested for the ability to displace delta-receptor specific radioligand [3H]DPDPE.
A short description of assay [9]: as §1.

T1 sequence (P33533 whole entry): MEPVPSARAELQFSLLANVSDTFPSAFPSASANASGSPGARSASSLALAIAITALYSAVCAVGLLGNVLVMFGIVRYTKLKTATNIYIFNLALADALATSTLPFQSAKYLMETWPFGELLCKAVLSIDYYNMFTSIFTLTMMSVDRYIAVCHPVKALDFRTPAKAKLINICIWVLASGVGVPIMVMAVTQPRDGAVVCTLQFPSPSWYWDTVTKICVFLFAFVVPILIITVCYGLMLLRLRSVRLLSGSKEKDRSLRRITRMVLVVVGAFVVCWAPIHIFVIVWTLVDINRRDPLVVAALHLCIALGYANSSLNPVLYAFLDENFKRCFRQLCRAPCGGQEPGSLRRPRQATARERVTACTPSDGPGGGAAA
T2 sequence (P33535 whole entry): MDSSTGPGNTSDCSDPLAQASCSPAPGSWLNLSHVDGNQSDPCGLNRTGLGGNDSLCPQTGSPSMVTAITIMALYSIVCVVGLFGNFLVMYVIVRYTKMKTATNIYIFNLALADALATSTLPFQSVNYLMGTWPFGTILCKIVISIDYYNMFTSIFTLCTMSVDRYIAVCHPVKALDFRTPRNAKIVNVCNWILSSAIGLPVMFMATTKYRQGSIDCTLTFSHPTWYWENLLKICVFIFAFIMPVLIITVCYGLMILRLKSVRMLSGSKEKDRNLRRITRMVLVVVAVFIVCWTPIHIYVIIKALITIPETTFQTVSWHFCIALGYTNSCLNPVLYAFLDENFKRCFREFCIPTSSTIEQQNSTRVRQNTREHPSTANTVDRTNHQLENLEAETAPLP

The term IC50 denotes the midpoint of a concentration-inhibition curve. By Ki is commonly meant the equilibrium dissociation constant of an inhibitor or competing ligand from its target. A higher Ki goes with a looser hold on the target. In turn, `CC1(C)SSC[C@H](C(=O)O)NC(=O)[C@H](Cc2ccccc2)NC(=O)CNC(=O)[C@@H]1NC(=O)[C@@H](N)Cc1ccc(O)cc1` gave an IC50 in the assay filed under Cavia porcellus (Cavia porcellus, Ileum) of 1350 nM. This compound also returned an inhibitory constant (Ki) in assay [1] of […].
In the assay filed under Cavia porcellus (Cavia porcellus, Ileum), `CC1(C)SSC[C@@H](NC(=O)[C@@H](N)Cc2ccc(O)cc2)C(=O)NCC(=O)N[C@@H](Cc2ccccc2)C(=O)N[C@@H]1C(=O)O` registered a half-inhibitory concentration (IC50) of 67 nM. Moreover, in assay [1], the Ki is […].
In the assay listed under Cavia porcellus (Cavia porcellus, Ileum), `CC1(C)SSC[C@@H](NC(=O)[C@@H](N)Cc2ccc(O)cc2)C(=O)NCC(=O)N[C@@H](Cc2ccccc2)C(=O)N[C@H]1C(=O)O` gave an IC50 of 40 nM. In [1], this compound registered a Ki of […].
`N[C@@H](Cc1ccc(O)cc1)C(=O)N[C@@H]1CSSC2(CCCCC2)[C@H](C(=O)O)NC(=O)[C@H](Cc2ccccc2)NC(=O)CNC1=O` returned an IC50 in the assay filed under Mus musculus (Mus musculus, Vas deferens) of 0.0564 nM.
In the case of `N[C@@H](Cc1ccc(O)cc1)C(=O)N[C@@H]1CSSC2(CCCCC2)[C@@H](C(=O)O)NC(=O)[C@H](Cc2ccccc2)NC(=O)CNC1=O`, the half-maximal inhibitory concentration (IC50) in the assay listed under Cavia porcellus (Cavia porcellus, Ileum) is 13.3 nM; in the assay listed under Mus musculus (Mus musculus, Vas deferens), 0.0745 nM.
Consider `N[C@@H](Cc1ccc(O)cc1)C(=O)N[C@H]1C(=O)NCC(=O)N[C@@H](Cc2ccccc2)C(=O)N[C@H](C(=O)O)CSSC12CCCCC2` (stereo in doubt; 5) [listing 1 of 2 here], for which the Ki in assay [2] came to 15 nM; on Mu-type opioid receptor [3], 1800 nM; in assay [4], 31.3 nM. Also, the IC50 in the assay filed under Cavia porcellus is 29900 nM; in the assay filed under Mus musculus, over 2040 nM.
Consider `N[C@@H](Cc1ccc(O)cc1)C(=O)N[C@H]1C(=O)NCC(=O)N[C@@H](Cc2ccccc2)C(=O)N[C@H](C(=O)O)CSSC12CCCCC2` (stereo in doubt; 5) [listing 2 of 2 here], for which the Ratio in assay [5] is under 14.7.
For `N[C@@H](Cc1ccc(O)cc1)C(=O)N[C@H]1C(=O)NCC(=O)N[C@@H](Cc2ccccc2)C(=O)N[C@H](C(=O)O)CSSC12CCCCC2` (stereo in doubt; 6) [listing 1 of 2 here], the figures for the Ki (on Mu-type opioid receptor [6]; in assay [7]; in assay [8]) were 4010 nM, 683 nM and 387 nM, respectively. For the same compound, the half-maximal inhibitory concentration (IC50) in the assay listed under Cavia porcellus was 70900 nM; in the assay listed under Mus musculus it was over 4240 nM.
`N[C@@H](Cc1ccc(O)cc1)C(=O)N[C@H]1C(=O)NCC(=O)N[C@@H](Cc2ccccc2)C(=O)N[C@H](C(=O)O)CSSC12CCCCC2` (stereo in doubt; 6) [listing 2 of 2 here]: the Ratio in [9] was under 16.7.
